Laboratory results published in US20240261295A1, “COMBINATIONS OF WEE1 INHIBITORS AND ANTI-CD47 ANTIBODIES” (Recurium IP Holdings, LLC, priority 2021, published 2024).

Test system: RPMI-8226 cells
Assay: RPMI-8226 xenograft model, tumor volume
Assay type: in vivo, Mice
Conditions: ZN-c3 60 mg/kg p.o. qd×21, single agent, RPMI-8226 subcutaneous xenograft
Method: Mice were inoculated with RPMI-8226 cells subcutaneously on the right flank with the single cell suspension of 95% viable tumor cells ([…]) in 100 μL RPMI 1640 Matrigel mixture (1:1 ratio) without serum for the tumor development. The treatment was started when the mean tumor size reached approximately 200 mm^3, with individual tumor size ranging from 185-235 mm^3. Animals were randomly distributed into treatment groups of 10 animals each and dosed with vehicle and indicated compounds at the indicated dosage and frequency shown in FIG. 2 and Table 1. In FIG. 2, the bottom line with circles is ZN-c3 60 mg/kg p.o. qd×21+Anti-CD47 20 mg/kg ip BIW×3. Anti-CD47 was obtained from Bio X Cell (clone B6.H12, catalog number BE0019-1). Tumor volumes were evaluated twice per week to calculate tumor volume over time, and the mice were weighed twice per week as a surrogate for signs of toxicity. Tumor growth inhibition (TGI) was calculated using the following equation TGI=(1−(Td−T0)/(Cd−C0))×100%. Td and Cd are the mean tumor volumes of the treated and control animals, and T0 and C0 are the mean tumor volumes of the treated and control animals at the start of the experiment. The tumor regression was defined as individual tumor volume (TV) decrease (terminal TV compared to initial TV). The percent tumor regression was calculated using the formula: (1−(Td/T0))×100%.

SMILES: C=CCn1c(=O)c2cnc(Nc3ccc(N4CCN(C)CC4)cc3)nc2n1-c1ccc2c(n1)[C@@](O)(CC)CC2 [ZN-c3]
- TGI % (Day 21): 61%
